Substitutions are numbered along the chain they refer to.
Tests used:
WT AdoMetDC = biological target: T1, WT AdoMetDC (Homo sapiens, UniProt P17707); assay: Stopped-flow intrinsic protein fluorescence binding kinetics, WT AdoMetDC; settings: for intrinsic fluorescence change on rapid mixing with AdoMetDC: stopped-flow, excitation 298 nm, emission 340 nm
T1 sequence (P17707 1-67 limits assumed): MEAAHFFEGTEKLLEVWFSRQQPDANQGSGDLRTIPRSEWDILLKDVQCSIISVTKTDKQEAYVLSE
T1 sequence (P17707 68-334 limits assumed): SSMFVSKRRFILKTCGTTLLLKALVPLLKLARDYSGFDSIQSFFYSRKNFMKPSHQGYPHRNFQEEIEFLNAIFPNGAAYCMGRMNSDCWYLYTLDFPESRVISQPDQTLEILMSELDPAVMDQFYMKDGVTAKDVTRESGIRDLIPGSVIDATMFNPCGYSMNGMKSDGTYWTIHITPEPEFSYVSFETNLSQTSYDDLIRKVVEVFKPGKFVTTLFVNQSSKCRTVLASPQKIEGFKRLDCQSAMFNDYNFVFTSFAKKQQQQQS

AdoMetDC F223A mutant = biological target: T2, AdoMetDC F223A mutant (Homo sapiens, UniProt P17707, F223A); assay: Stopped-flow intrinsic protein fluorescence binding kinetics, F223A mutant; settings: single exponential fit
T2 sequence (P17707 1-67 limits assumed): T1 sequence (P17707 1-67 limits assumed)
T2 sequence (P17707 68-334 F223A limits assumed): T1 sequence (P17707 68-334 limits assumed) with F156A

[1] = modeling studies using NMR constraints, molecular mechanics; cited from earlier work
AdoMetDC = biological target: T3, AdoMetDC (Homo sapiens, UniProt P17707); settings: cited from earlier work
T3 sequence (P17707 1-67 limits assumed): T1 sequence (P17707 1-67 limits assumed)
T3 sequence (P17707 68-334 limits assumed): T1 sequence (P17707 68-334 limits assumed)

| Structure (SMILES) | k2 + k−2 (WT AdoMetDC; WT enzyme, hyperbolic fit of slow phase) [s⁻¹] | k−1 (WT AdoMetDC; WT enzyme, linear fit of fast phase, 25 °C, pH 7.5) [s⁻¹] | intrinsic fluorescence change on rapid mixing with AdoMetDC (WT AdoMetDC) | k1 (slope) (AdoMetDC F223A mutant) | k−1 (y-intercept) (AdoMetDC F223A mutant) [s⁻¹] | energy difference between the anti and syn conformations in solution [1] [kcal/mol] | IC50 (AdoMetDC) [µM] |
| --- | --- | --- | --- | --- | --- | --- | --- |
| C[S+](CC[C@H](N)C(=O)[O-])C[C@H]1O[C@@H](n2cnc3c(N)ncnc32)[C@H](O)[C@@H]1O (stereo partly drawn) [AdoMet, S-adenosylmethionine] | 3.7 ± 0.2 | 33 ± 2 | intrinsic fluorescence change was observed | 1.7 ± 0.3 × 10^−4 μM^−1s^−1 | 2.4 ± 0.2 | -34 |  |
| C[S+](C)C[C@H]1O[C@@H](n2cnc3c(N)ncnc32)[C@H](O)[C@@H]1O [MMTA, 5′-deoxy-5′-(dimethylsulfonio)adenosine] |  |  | too weak to measure |  |  |  | 15 |
| Nc1ncnc2c1ncn2[C@@H]1O[C@H](CSCC[C@H](N)C(=O)O)[C@@H](O)[C@H]1O [SAH, S-adenosylhomocysteine] |  |  | no significant change |  |  |  |  |

Source: PMC2730737 (Biochemistry, 2009)
